{
  "source": "patent US12459921B2",
  "about": "“Isoindoline compound, preparation method, pharmaceutical composition and use thereof” (SHANGHAI INSTITUTE OF MATERIA MEDICA, CHINESE ACADEMY OF …, priority 2018, dated 2025)",
  "data": [
    {"test_system": "MM.1S cells", "experiment": "Inhibitory effect on the proliferation of MM.1S, MTS cell viability test", "format": "cell-based", "settings": "Homo sapiens, MM1.S, 168 h, multiple myeloma MM.1S cells, 7 days incubation, read-out: Tumor cell inhibitory activity", "method_in_brief": "(§1)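 MM.1S cells (20,000/well, RPMI 1640 with 10% FBS) exposed to 5-fold compound dilutions at 0.2% DMSO for 7 days at 37° C, 5% CO2. MTS added for 3-4 h; OD490-OD690 gave inhibition versus DMSO, IC50 fitted, mean of three experiments.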", "units": {"IC50": "nM"}, "values": [
      {"smiles": "N#CC1(c2ccc(O[C@H]3CCOC3)cc2)CCN(CCCCCc2cccc3c2CN(C2CCC(=O)NC2=O)C3=O)CC1", "note": "(stereo partly drawn) [Example 252, 1-(5-(2-(2,6-dioxopiperidin-3-yl)-1-oxoisoindolin-4-yl)pentyl)-4-(4-(((S)-tetrahydrofuran-3-yl)oxy)phenyl)piperidine-4-carbonitrile]", "IC50": "100 to 1000"},
      {"smiles": "O=C1CCC(N2Cc3c(CCCCCN4CCC5(CC4)OCc4ccc(F)cc45)cccc3C2=O)C(=O)N1", "note": "(stereo not shown) [Example 156, 3-(4-(5-(6-fluoro-3H-spiro[isobenzofuran-1,4′-piperidine]-1′-)pentyl)-1-oxoisoindoline-2-)piperidine-2,6-dione]", "IC50": "< 100"},
      {"smiles": "CC(=O)N[C@@H](CCCc1cccc2c1CN(C1CCC(=O)NC1=O)C2=O)C(=O)NCc1ccc(Oc2ccccc2)cc1", "note": "(stereo partly drawn) [Example 192, (2S)-2-acetylamino-5-(2-(2,6-dioxopiperidine-3-)-1-oxoisoindoline-4-)-N-(4-phenoxybenzyl)pentanamide]", "IC50": "100 to 1000"},
      {"smiles": "O=C1CCC(N2Cc3c(OCCCCC(=O)N4CCN(c5ccccc5)CC4)cccc3C2=O)C(=O)N1", "note": "(stereo not shown) [Example 30]", "IC50": "< 100"},
      {"smiles": "CC(=O)N[C@@H](CCCc1cccc2c1CN(C1CCC(=O)NC1=O)C2=O)C(=O)N[C@H](C)c1ccccc1", "note": "(stereo partly drawn) [Example 169, (2S)-2-acetylamino-5-(2-(2,6-dioxopiperidine-3-)-1-oxoisoindoline-4-)-N—((R)-1-phenethyl)pentanoamide]", "IC50": "< 100"},
      {"smiles": "[2H]c1c([2H])c([2H])c(N2CCN(CCCCCc3cccc4c3CN(C3CCC(=O)NC3=O)C4=O)CC2)c([2H])c1[2H]", "note": "(stereo not shown) [Example 210]", "IC50": "100 to 1000"},
      {"smiles": "O=C1CCC(N2Cc3c(CCCCCN4CCC5(CC4)C(=O)Nc4c(Cl)cccc45)cccc3C2=O)C(=O)N1", "note": "(stereo not shown) [Example 279, 3-(4-(5-(7-chloro-2-oxospiro[dihydroindole-3,4-piperidin]-1-yl)pentyl)-1-oxoisoindoline-2-yl)piperidine-2,6-dione]", "IC50": "100 to 1000"},
      {"smiles": "O=C1CCC(N2Cc3c(CCCCCN4CCCc5cc(Br)ccc54)cccc3C2=O)C(=O)N1", "note": "(stereo not shown) [Example 106, 3-(4-(5-(6-bromo-3,4-dihydroquinoline-1(2H))pentyl)-1-oxoisoindoline-2-)piperidine-2,6-dione]", "IC50": "100 to 1000"},
      {"smiles": "O=C1CCC(N2Cc3c(CCCCCN4CCC5(CC4)OC(=O)Nc4ncccc45)cccc3C2=O)C(=O)N1", "note": "(stereo not shown) [Example 131, 3-(1-oxo-4-(5-(2′-oxo-1′,2′-dihydrospiro[piperidine-4,4′-pyrido[2,3-d][1,3)oxazine)-1-)pentyl)isoindoline-2-)piperidine-2,6-dione]", "IC50": "100 to 1000"},
      {"smiles": "O=C1CCC(N2Cc3c(OCCCCN4CCN(c5ccc(Cl)c(Cl)c5)CC4)cccc3C2=O)C(=O)N1", "note": "(stereo not shown) [Example 243, 3-(4-(4-(4-(3,4-dichlorophenyl)piperazine-1-yl)butoxy)-1-oxoisoindoline-2-yl)piperidine-2,6-dione]", "IC50": "100 to 1000"},
      {"smiles": "[2H]c1c([2H])c([2H])c(N2CCN(CCCCCCc3cccc4c3CN(C3CCC(=O)NC3=O)C4=O)CC2)c([2H])c1[2H]", "note": "(stereo not shown) [Example 209, 3-(1-oxo-4-(6-(4-(phenyl-d5)piperazine-1-)hexyl)isoindoline-2-)piperidine-2,6-dione]", "IC50": "< 100"},
      {"smiles": "CC(=O)N[C@@H](CCCc1cccc2c1CN(C1CCC(=O)NC1=O)C2=O)c1nc2ccccc2[nH]1", "note": "(stereo partly drawn) [Example 203, N-((1S)-1-(1H-benzo[d]imidazole-2-)-4-(2-(2,6-dioxopiperidine-3-)-1-oxoisoindoline-4-)butyl)amide]", "IC50": "100 to 1000"},
      {"smiles": "CC(=O)N[C@@H](CCCc1cccc2c1CN(C1CCC(=O)NC1=O)C2=O)C(=O)NCc1ccc(OCCN(C)C)cc1", "note": "(stereo partly shown) [Example 190]", "IC50": "1000 to 20000"},
      {"smiles": "N#CC1(c2ccccc2)CCN(CCCOc2cccc3c2CN(C2CCC(=O)NC2=O)C3=O)CC1", "note": "(stereo not shown) [Example 53, 1-(3-((2-(2,6-dioxopiperidine-3-)-1-oxoisoindoline-4-)oxy)propyl)-4-phenylpiperidine-4-carboxonitrile]", "IC50": "< 100"},
      {"smiles": "Cc1cc(C)c(C2(C#N)CCN(CCCCCc3cccc4c3CN(C3CCC(=O)NC3=O)C4=O)CC2)c(C)c1", "note": "(stereo not shown) [Example 262, 1-(5-(2-(2,6-dioxopiperidin-3-yl)-1-oxoisoindolin-4-yl)pentyl)-4-sym-trimethylphenylpiperidine-4-carbonitrile]", "IC50": "1000 to 20000"},
      {"smiles": "N[C@@H](CCCc1cccc2c1CN(C1CCC(=O)NC1=O)C2=O)C(=O)Nc1ccccc1-c1cccnc1", "note": "(stereo partly drawn) [Example 172, (2S)-2-amino-5-(2-(2,6-dioxopiperidine-3-)-1-oxoisoindoline-4-)-N-(2-(pyridine-3-)phenyl)pentaneamide]", "IC50": "> 20000"},
      {"smiles": "O=C1CCC(N2Cc3c(OCCCCN4CCN(c5cccc(Cl)c5Cl)CC4)cccc3C2=O)C(=O)N1", "note": "(stereo not shown) [Example 240, 3-(4-(4-(4-(2,3-dichlorophenyl)piperazine-1-yl)butoxy)-1-oxoisoindoline-2-yl)piperidine-2,6-dione]", "IC50": "1000 to 20000"},
      {"smiles": "N#CC1(c2ccccc2OC(F)(F)F)CCN(C(=O)CCCOc2cccc3c2CN(C2CCC(=O)NC2=O)C3=O)CC1", "note": "(stereo not shown) [Example 90, 1-(4-((2-(2,6-dioxopiperidine-3-)-1-oxoisoindoline-4-)-oxy-)butyryl)-4-(2-trifluoromethoxyphenyl)piperidine-4-carbonitrile]", "IC50": "1000 to 20000"},
      {"smiles": "O=C1CCC(N2Cc3c(CCCCN4CCN(c5cccc(Cl)c5Cl)CC4)cccc3C2=O)C(=O)N1", "note": "(stereo not shown) [Example 21, 3-(4-(4-(4-(2,3-dichlorophenyl)piperazine-1-)butyl)-1-oxoisoindoline-2-)piperidine-2,6-dione]", "IC50": "< 100"},
      {"smiles": "C[C@]1(N2Cc3c(OCCCN4CCC(C#N)(c5cccc(Cl)c5)CC4)cccc3C2=O)CCC(=O)NC1=O", "note": "[Example 52, (S)-4-(3-chlorophenyl)-1-(3-((2-(3-methyl-2,6-dioxopiperidine-3-)-1-oxoisoindole-4-)oxy)propyl)piperidine-4-carbonitrile]", "IC50": "1000 to 20000"},
      {"smiles": "Cc1ccc(NC(=O)[C@H](CCCc2cccc3c2CN(C2CCC(=O)NC2=O)C3=O)NC(=O)C2CC2)cc1Cl", "note": "(stereo partly drawn) [Example 185, N-((2S)-1-((3-chloro-4-methylphenyl)amino)-5-(2-(2,6-dioxopiperidine-3-)-1-oxoisoindoline-4-)-1-oxopentyl-2-)cyclopropylformamide]", "IC50": "< 100"},
      {"smiles": "COc1ccc(C2(C#N)CCN(CCCCCc3cccc4c3CN(C3CCC(=O)NC3=O)C4=O)CC2)cc1", "note": "(stereo not shown) [Example 265, 1-(5-(2-(2,6-dioxopiperidin-3-yl)-1-oxoisoindolin-4-yl)pentyl)-4-(4-methoxyphenyl)piperidine-4-carbonitrile]", "IC50": "1000 to 20000"},
      {"smiles": "N#CC1(c2ccc(Cl)cc2)CCN(CCCCc2cccc3c2CN(C2CCC(=O)NC2=O)C3=O)CC1", "note": "(stereo not shown) [Example 95, 4-(4-chlorophenyl)-1-(4-(2-(2,6-dioxopiperidine-3-)-1-oxoisoindoline-4-)butyl)piperidine-4-carbonitrile]", "IC50": "< 100"},
      {"smiles": "Cc1ccc(NC(=O)[C@H](CCCc2cccc3c2CN(C2CCC(=O)NC2=O)C3=O)NC(=O)CCCCCO)cc1Cl", "note": "(stereo partly drawn) [Example 193, N-((2S)-1-(3-chloro-4-methylaniline)-5-(2-(2,6-dioxopiperidine-3-)-1-oxoisoindoline-4-)-1-oxopentyl-2-)-6-hydroxyhexanamide]", "IC50": "< 100"},
      {"smiles": "CC(=O)N[C@@H](CCCc1cccc2c1CN(C1CCC(=O)NC1=O)C2=O)C(=O)Nc1ccccc1-c1ccccn1", "note": "(stereo partly drawn) [Example 194, (2S)-2-acetylamino-5-(2-(2,6-dioxopiperidine-3-)-1-oxoisoindoline-4-)-N-(2-(pyridine-2-)phenyl)pentanamide]", "IC50": "100 to 1000"},
      {"smiles": "N#CC1(c2ccccc2OC(F)(F)F)CCN(CCCOc2cccc3c2CN(C2CCC(=O)NC2=O)C3=O)CC1", "note": "(stereo not shown) [Example 78, 1-(3-((2-(2,6-dioxopiperidine-3-)-1-oxoisoindoline-4-)-oxy-)propyl)-4-(2-trifluoromethoxyphenyl)piperidine-4-carbonitrile]", "IC50": "< 100"},
      {"smiles": "O=C1CCC(N2Cc3c(CCCCCOc4cnc5ccccc5c4)cccc3C2=O)C(=O)N1", "note": "(stereo not shown) [Example 11, 3-(1-oxo-4-(5-(quinoline-3-oxy)pentyl)isoindoline-2-)piperidine-2,6-dione]", "IC50": "< 100"},
      {"smiles": "Cc1ccc(NC(=O)NCCOc2cccc3c2CN(C2CCC(=O)NC2=O)C3=O)cc1Cl", "note": "(stereo not shown) [Example 160, 1-(3-chloro-4-methylphenyl)-3-(2-((2-(2,6-dioxopiperidine-3-)-1-oxoisoindoline-4-)oxy)ethyl)ure]", "IC50": "< 100"},
      {"smiles": "C[C@]1(N2Cc3c(OCCCN4CCN(c5cccc(Cl)c5Cl)CC4)cccc3C2=O)CCC(=O)NC1=O", "note": "[Example 25, (S)-3-(4-(3-(4-(2,3-dichlorophenyl)piperazine-1-)propoxy)-1-oxoisoindoline-2-)-3-methylpiperidine-2,6-dione]", "IC50": "1000 to 20000"},
      {"smiles": "O=C1CCC(N2Cc3c(CCCCN4CCN(c5ccc(Cl)c(Cl)c5)CC4)cccc3C2=O)C(=O)N1", "note": "(stereo not shown) [Example 44, 3-(4-(4-(4-(3,4-dichlorophenyl)piperazine-1-)butyl)-1-oxoisoindoline-2-)piperidine-2,6-dione]", "IC50": "< 100"},
      {"smiles": "N#CC1(c2cccc(Cl)c2)CCN(CCCCc2cccc3c2CN(C2CCC(=O)NC2=O)C3=O)CC1", "note": "(stereo not shown) [Example 93, 4-(3-chlorophenyl)-1-(4-(2-(2,6-dioxopiperidine-3-)-1-oxoisoindoline-4-)butyl)piperidine-4-carbonitrile]", "IC50": "< 100"},
      {"smiles": "N#CC1(c2ccc(Cl)cc2F)CCN(CCCOc2cccc3c2CN(C2CCC(=O)NC2=O)C3=O)CC1", "note": "(stereo not shown) [Example 72, 4-(4-chloro-2-fluorophenyl)-1-(3-((2-(2,6-dioxopiperidine-3-)-1-oxoisoindoline-4-)oxy)propyl)piperidine-4-carbonitrile]", "IC50": "< 100"},
      {"smiles": "N#Cc1cccc(C2(C#N)CCN(CCCOc3cccc4c3CN(C3CCC(=O)NC3=O)C4=O)CC2)c1", "note": "(stereo not shown) [Example 67, 4-(3-cyanophenyl)-1-(3-((2-(2,6-dioxopiperidine-3-)-1-oxoisoindoline-4-)oxy)propyl)piperidine-4-carbonitrile]", "IC50": "100 to 1000"}
    ]},
    {"test_system": "MM.1S cells", "experiment": "Inhibitory effect on the proliferation of MM.1S, MTS cell viability test", "format": "cell-based", "settings": "multiple myeloma MM.1S cells, 7 days incubation, read-out: Tumor cell inhibitory activity", "method_in_brief": "as §1", "units": {"IC50": "nM"}, "values": [
      {"smiles": "N#CC1(c2ccc(O[C@H]3CCOC3)cc2)CCN(CCCCCc2cccc3c2CN(C2CCC(=O)NC2=O)C3=O)CC1", "note": "(stereo partly drawn) [Example 263, 1-(5-(2-(2,6-dioxopiperidin-3-yl)-1-oxoisoindolin-4-yl)pentyl)-4-(4-(((S)-tetrahydrofuran-3-yl)oxy)phenyl)piperidine-4-carbonitrile]", "IC50": "100 to 1000"}
    ]}
  ]
}
